Results published in patent US11058707B2, “Methods for treating ischemic heart disease by targeting TRPV4” (Northeast Ohio Medical University, priority 2018, dated 2021).

Legend:
[1] = system: human ventricular fibroblasts; assay: TGF-b1-induced differentiation of human ventricular fibroblasts to myofibroblasts (immunofluorescence, α-SMA); format: cell-based; settings: AB1+TGFβ1 vs TGFβ1; immunofluorescence actin/α-SMA/DAPI (FIG. 5A-5C)
WT mice subjected to MI = assay: Myocardial infarction (LAD ligation) in WT mice treated orally with TRPV4 antagonist; echocardiography and histology; format: in vivo
Protocol: WT mice were subjected to MI by ligating LAD. MI mice were then given orally a specific TRPV4 antagonist, GSK2193874 (GSK2) (10 mg/Kg/day) or vehicle (0.01% DMSO/water).
Orally active TRPV4 antagonist GSK2193874 was given immediately after MI surgery and followed for 5 weeks.

[2] = given immediately after MI surgery, followed for 5 weeks, vs WT or vehicle treated mice

| SMILES | TGF-b1-induced differentiation of human ventricular fibroblasts [1] | cardiac fibrosis (Masson's trichrome staining) at the infarct zone and remote zone (WT mice subjected to MI; GSK2 treated-MI hearts vs Vehicle treated-MI hearts (FIG. 16)) | ejection fraction (WT mice subjected to MI; [2]) | fractional shortening (WT mice subjected to MI; [2]) | cardiac function: ejection fraction (WT mice subjected to MI; post-MI WT mice, 10 mg/Kg/day orally vs vehicle (0.01% DMSO/water), echocardiography (FIG. 11A)) | cardiac function: fractional shortening (WT mice subjected to MI; post-MI WT mice, 10 mg/Kg/day orally vs vehicle (0.01% DMSO/water), echocardiography (FIG. 11B)) |
| --- | --- | --- | --- | --- | --- | --- |
| CC(C)NCCN(C(C)C)S(=O)(=O)c1ccc(Cl)cc1Cl [AB159908, 2,4-dichloro-N-isopropyl-N-(2-isopropylaminoethyl)benzenesulfonamide] | attenuation |  |  |  |  |  |
| O=C(NC1(c2ccccc2)CC1)c1c(CN2CCC(N3CCCCC3)CC2)c(-c2cccc(C(F)(F)F)c2)nc2cc(Br)ccc12 [GSK2193874, 3-([1,4′-bipiperidin]-1′-ylmethyl)-7-bromo-N-(1-phenylcyclopropyl)-2-[3-(trifluoromethyl)phenyl]-4-quinolinecarboxamide] |  | significantly reduced | preserved | preserved | preserved | preserved |
